Molecular target: T1, LRRK2 (Homo sapiens, UniProt Q5S007, G2019S)
T1 construct: purchased Invitrogen PV4882 (lot 567054A)
Test: In Vitro LRRK2 Assay (LabChip 3000, fluorescently-labeled peptide substrate, ATP)
Type: biochemical
Details: Table 9; LRRK2 Ki (micromolar); read-out: LRRK2 Ki (KI)
Outline: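 LRRK2, fluorescent peptide substrate (diluted to 4 μM before mixing), ATP and compound were incubated 2 h in the dark, then stopped. Phosphorylated and unphosphorylated peptide were separated by capillary electrophoresis and quantified by fluorescence. Ki was fitted with a tight-binding equation including enzyme concentration, S and Km; IC50 or percent inhibition were also reported.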

T1 sequence (Q5S007 whole entry G2019S): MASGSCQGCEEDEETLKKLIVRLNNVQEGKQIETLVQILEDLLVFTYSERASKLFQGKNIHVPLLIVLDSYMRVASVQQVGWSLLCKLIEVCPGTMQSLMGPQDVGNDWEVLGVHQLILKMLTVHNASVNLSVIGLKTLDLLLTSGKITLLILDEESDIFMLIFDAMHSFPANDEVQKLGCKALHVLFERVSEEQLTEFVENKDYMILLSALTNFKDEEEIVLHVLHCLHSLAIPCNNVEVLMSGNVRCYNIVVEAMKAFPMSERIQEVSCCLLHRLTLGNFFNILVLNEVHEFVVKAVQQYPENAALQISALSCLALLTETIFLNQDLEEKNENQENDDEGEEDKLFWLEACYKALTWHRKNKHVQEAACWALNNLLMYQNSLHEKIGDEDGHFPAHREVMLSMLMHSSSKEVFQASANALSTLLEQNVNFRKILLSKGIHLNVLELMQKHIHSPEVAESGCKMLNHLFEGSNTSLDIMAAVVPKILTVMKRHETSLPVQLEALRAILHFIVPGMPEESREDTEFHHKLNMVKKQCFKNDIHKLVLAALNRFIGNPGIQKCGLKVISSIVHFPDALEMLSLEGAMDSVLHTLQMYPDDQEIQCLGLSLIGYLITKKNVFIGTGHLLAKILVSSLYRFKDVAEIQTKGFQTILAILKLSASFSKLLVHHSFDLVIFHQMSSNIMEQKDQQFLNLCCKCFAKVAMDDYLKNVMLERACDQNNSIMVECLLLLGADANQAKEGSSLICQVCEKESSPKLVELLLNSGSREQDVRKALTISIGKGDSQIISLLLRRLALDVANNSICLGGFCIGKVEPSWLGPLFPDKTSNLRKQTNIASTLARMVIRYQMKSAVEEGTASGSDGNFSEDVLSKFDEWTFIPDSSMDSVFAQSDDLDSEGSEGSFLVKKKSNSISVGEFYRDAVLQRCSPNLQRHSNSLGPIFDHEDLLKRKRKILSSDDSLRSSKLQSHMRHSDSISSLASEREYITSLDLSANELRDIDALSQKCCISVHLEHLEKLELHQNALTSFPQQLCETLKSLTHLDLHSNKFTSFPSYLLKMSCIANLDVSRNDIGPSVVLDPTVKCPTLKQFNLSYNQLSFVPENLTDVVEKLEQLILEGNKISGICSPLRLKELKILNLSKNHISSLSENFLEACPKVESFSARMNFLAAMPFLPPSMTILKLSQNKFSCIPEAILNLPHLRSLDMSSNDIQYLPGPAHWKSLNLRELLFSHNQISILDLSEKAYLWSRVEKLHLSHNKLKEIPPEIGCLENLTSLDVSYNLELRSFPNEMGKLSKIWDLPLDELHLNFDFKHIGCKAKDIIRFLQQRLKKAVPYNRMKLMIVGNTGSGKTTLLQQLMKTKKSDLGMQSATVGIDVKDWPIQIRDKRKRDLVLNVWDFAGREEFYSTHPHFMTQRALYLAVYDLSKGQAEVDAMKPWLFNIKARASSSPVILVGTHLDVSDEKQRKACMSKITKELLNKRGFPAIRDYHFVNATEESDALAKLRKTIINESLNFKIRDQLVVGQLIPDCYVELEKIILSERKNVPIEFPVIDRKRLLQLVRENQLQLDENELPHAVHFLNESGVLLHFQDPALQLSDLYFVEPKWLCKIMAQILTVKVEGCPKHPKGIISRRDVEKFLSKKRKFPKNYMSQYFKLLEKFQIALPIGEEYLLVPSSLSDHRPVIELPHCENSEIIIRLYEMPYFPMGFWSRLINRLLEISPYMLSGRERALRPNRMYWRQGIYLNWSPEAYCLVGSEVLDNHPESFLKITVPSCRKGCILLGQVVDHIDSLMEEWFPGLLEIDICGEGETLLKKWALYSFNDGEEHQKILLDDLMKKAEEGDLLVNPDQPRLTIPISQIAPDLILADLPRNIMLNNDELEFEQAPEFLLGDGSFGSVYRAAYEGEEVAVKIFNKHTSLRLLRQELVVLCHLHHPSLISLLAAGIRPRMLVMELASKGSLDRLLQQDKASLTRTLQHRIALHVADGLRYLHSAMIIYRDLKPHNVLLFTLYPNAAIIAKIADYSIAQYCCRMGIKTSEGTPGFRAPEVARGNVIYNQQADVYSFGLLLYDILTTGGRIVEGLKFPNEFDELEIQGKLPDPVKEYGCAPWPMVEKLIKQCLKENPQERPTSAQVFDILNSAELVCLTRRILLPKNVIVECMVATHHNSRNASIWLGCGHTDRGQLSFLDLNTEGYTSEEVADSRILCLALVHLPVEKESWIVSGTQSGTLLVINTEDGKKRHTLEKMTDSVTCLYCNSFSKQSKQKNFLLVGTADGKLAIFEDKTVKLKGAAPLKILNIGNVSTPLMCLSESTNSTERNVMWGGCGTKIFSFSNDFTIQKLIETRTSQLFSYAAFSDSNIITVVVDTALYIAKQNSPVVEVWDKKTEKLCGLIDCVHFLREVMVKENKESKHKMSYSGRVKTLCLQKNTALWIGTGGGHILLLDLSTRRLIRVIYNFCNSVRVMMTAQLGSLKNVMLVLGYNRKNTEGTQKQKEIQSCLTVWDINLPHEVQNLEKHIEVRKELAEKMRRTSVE

Ki | SMILES
75 nM | CCn1ncc(Nc2ncc(C#N)c(OC)n2)c1C [Example 377, 2-(1-ethyl-5-methyl-1H-pyrazol-4-ylamino)-4-methoxypyrimidine-5-carbonitrile]
9.6 nM | CNc1nc(Nc2cnn(C3CCOCC3)c2Cl)ncc1C#N [Example 383, 2-(5-chloro-1-(tetrahydro-2H-pyran-4-yl)-1H-pyrazol-4-ylamino)-4-(methylamino) pyrimidine-5-carbonitrile]
86 nM | CNc1nc(Nc2cn(C3CCOCC3)nc2C)ncc1C#N [Example 362, 2-(3-methyl-1-(tetrahydro-2H-pyran-4-yl)-1H-pyrazol-4-ylamino)-4-(methylamino) pyrimidine-5-carbonitrile]
15.8 nM | CNc1nc(Nc2cnn(C(C)C)c2C)ncc1C#N [Example 374, 2-(1-isopropyl-5-methyl-1H-pyrazol-4-ylamino)-4-(methylamino) pyrimidine-5-carbonitrile]

Same assay, conditions: Table 10; LRRK2 Ki (micromolar); read-out: LRRK2 Ki (KI)

Ki | SMILES
12.2 nM | COC(=O)C(C)(C)n1ncc(Nc2ncc(Cl)c(OC)n2)c1C [Example 434, 2-[4-(5-Chloro-4-methoxy-pyrimidin-2-ylamino)-5-methyl-pyrazol-1-yl]-2-methyl-propionic acid methyl ester]
28.4 nM | CNc1nc(Nc2cnn([C@H](C)C(=O)N(C)C)c2C)ncc1C(F)(F)F [Example 412, (R)-N,N-dimethyl-2-(5-methyl-4-(4-(methylamino)-5-(trifluoromethyl)pyrimidin-2-ylamino)-1H-pyrazol-1-yl)propanamide]
18 nM | CNc1nc(Nc2cn([C@H](C)C(=O)N(C)C)nc2C)ncc1C(F)(F)F [Example 404, (R)-N,N-dimethyl-2-(3-methyl-4-(4-(methylamino)-5-(trifluoromethyl)pyrimidin-2-ylamino)-1H-pyrazol-1-yl)propanamide]
9.5 nM | CNc1nc(Nc2cnn([C@@H](C)C#N)c2C)ncc1C(F)(F)F [Example 415, (S)-2-(5-methyl-4-(4-(methylamino)-5-(trifluoromethyl)pyrimidin-2-ylamino)-1H-pyrazol-1-yl)propanenitrile]
52 nM | CNc1nc(Nc2cn(C(C)(C)C(=O)NCC3CC3)nc2C)ncc1C(F)(F)F [Example 427, N-(cyclopropylmethyl)-2-methyl-2-(3-methyl-4-(4-(methylamino)-5-(trifluoromethyl)pyrimidin-2-ylamino)-1H-pyrazol-1-yl)propanamide]

Same assay, conditions: read-out: LRRK2 Ki (KI), Table 7

Ki | SMILES
7.8 nM | COc1nc(Nc2cn(S(C)(=O)=O)nc2C)ncc1Cl [Example 54, 5-chloro-4-methoxy-N-(3-methyl-1-(methylsulfonyl)-1H-pyrazol-4-yl)pyrimidin-2-amine]
3.6 nM | CNc1nc(Nc2cnn(CC(F)(F)F)c2C)ncc1C(F)(F)F [Example 58, N^4-methyl-N^2-(5-methyl-1-(2,2,2-trifluoroethyl)-1H-pyrazol-4-yl)-5-(trifluoromethyl) pyrimidine-2,4-diamine]
38.1 nM | COc1nc(Nc2cnn(-c3ccccc3)c2C)ncc1C(F)(F)F [Example 78, (4-Methoxy-5-trifluoromethyl-pyrimidin-2-yl)-(5-methyl-1-phenyl-1H-pyrazol-4-yl)-amine]
13 nM | CCn1cc(Nc2ncc(Cl)c(OC)n2)c(C)n1 [Example 26, 5-Chloro-N-(1-ethyl-3-methyl-1H-pyrazol-4-yl)-4-methoxy-pyrimidin-2-amine]
112 nM | CNc1nc(Nc2ccnn2C(C)C)ncc1C(F)(F)F [Example 47, N^2-(1-isopropyl-1H-pyrazol-5-yl)-N^4-methyl-5-(trifluoromethyl) pyrimidine-2,4-diamine]
9.1 nM | COc1nc(Nc2cnn(C)c2C)ncc1Cl [Example 12, 5-Chloro-N-(1,5-dimethyl-1H-pyrazol-4-yl)-4-methoxy-pyrimidin-2-amine]
183 nM | COc1nc(Nc2cn(C3CCN(CCF)CC3)nc2C)ncc1Cl [Example 86, (5-Chloro-4-methoxy-pyrimidin-2-yl)-{1-[1-(2-fluoro-ethyl)-piperidin-4-yl]-3-methyl-1H-pyrazol-4-yl}-amine]
27 nM | COc1nc(Nc2cn(CC(C)(C)O)nc2C)ncc1Cl [Example 23]

Same assay, conditions: read-out: LRRK2 Ki (KI), Table 8

Ki | SMILES
0.3 nM | CNc1nc(Nc2cn(C(C)(C)c3cnn(C)c3)nc2C)ncc1C(F)(F)F [Example 340, N4-methyl-N2-(3-methyl-1-(2-(1-methyl-1H-pyrazol-4-yl)propan-2-yl)-1H-pyrazol-4-yl)-5-(trifluoromethyl) pyrimidine-2,4-diamine]
21.7 nM | CCNc1nc(Nc2cn(C(C)(C)c3ccn(C)n3)nc2C)ncc1C(F)(F)F [Example 342, N4-ethyl-N2-(3-methyl-1-(2-(1-methyl-1H-pyrazol-3-yl)propan-2-yl)-1H-pyrazol-4-yl)-5-(trifluoromethyl) pyrimidine-2,4-diamine]
24.5 nM | CNc1nc(Nc2cnn(C)c2CF)ncc1C(F)(F)F [Example 330, N2-(5-Fluoromethyl-1-methyl-1H-pyrazol-4-yl)-N4-methyl-5-trifluoromethyl-pyrimidine-2,4-diamine]
0.7 nM | CCNc1nc(Nc2cnn(CC(C)(C)C#N)c2Cl)ncc1C(F)(F)F [Example 318, 3-[5-Chloro-4-(4-ethylamino-5-trifluoromethyl-pyrimidin-2-ylamino)-pyrazol-1-yl]-2,2-dimethyl-propionitrile]
37.4 nM | CNc1nc(Nc2cn(C3CCN(C4COC4)CC3)nc2C)ncc1C(F)(F)F [Example 131, N4-methyl-N2-(3-methyl-1-(1-(oxetan-3-yl)piperidin-4-yl)-1H-pyrazol-4-yl)-5-(trifluoromethyl) pyrimidine-2,4-diamine]
5.1 nM | CNc1nc(Nc2cn(Cc3ncccn3)nc2C)ncc1C(F)(F)F [Example 304, N4-Methyl-N2-(3-methyl-1-pyrimidin-2-ylmethyl-1H-pyrazol-4-yl)-5-trifluoromethyl-pyrimidine-2,4-diamine]
0.3 nM | CNc1nc(Nc2cnn(CC3CC3)c2Cl)ncc1C(F)(F)F [Example 146, N2-(5-chloro-1-(cyclopropyl-methyl)-1H-pyrazol-4-yl)-N4-methyl-5-(trifluoromethyl) pyrimidine-2,4-diamine]
232 nM | CNc1nc(Nc2[nH]ncc2C)ncc1C(F)(F)F [Example 206, N4-methyl-N2-(4-methyl-1H-pyrazol-5-yl)-5-(trifluoromethyl) pyrimidine-2,4-diamine]
22.8 nM | CNc1nc(Nc2cn(C(C)(C)CN3CCOCC3)nc2C)ncc1C(F)(F)F [Example 299, N2-[1-(1,1-Dimethyl-2-morpholin-4-yl-ethyl)-3-methyl-1H-pyrazol-4-yl]-N4-methyl-5-trifluoromethyl-pyrimidine-2,4-diamine]
2.2 nM | CCNc1nc(Nc2cnn(CC3(C)COC3)c2C)ncc1C(F)(F)F [Example 169, N4-ethyl-N2-(5-methyl-1-((3-methyloxetan-3-yl)methyl)-1H-pyrazol-4-yl)-5-(trifluoromethyl) pyrimidine-2,4-diamine]
1 nM | CNc1nc(Nc2cnn(C3CCN(C(=O)C4CC4)CC3)c2C)ncc1C(F)(F)F [Example 135, cyclopropyl(4-(5-methyl-4-(4-(methylamino)-5-(trifluoromethyl)pyrimidin-2-ylamino)-1H-pyrazol-1-yl)piperidin-1-yl)methanone]
9 nM | CNc1nc(Nc2c[nH]nc2C)ncc1C(F)(F)F [Example 103, N4-methyl-N2-(3-methyl-1H-pyrazol-4-yl)-5-(trifluoromethyl) pyrimidine-2,4-diamine]
0.3 nM | CCNc1nc(Nc2cn(C3CCN(C4COC4)CC3F)nc2C)ncc1C(F)(F)F (stereo not shown) [Example 319, N4-Ethyl-N2-[1-(3-fluoro-1-oxetan-3-yl-piperidin-4-yl)-3-methyl-1H-pyrazol-4-yl]-5-trifluoromethyl-pyrimidine-2,4-diamine]
7.6 nM | CCNc1nc(Nc2cn(C(C)(C)c3nncn3C)nc2C)ncc1C(F)(F)F [Example 337, N4-ethyl-N2-(3-methyl-1-(2-(4-methyl-4H-1,2,4-triazol-3-yl)propan-2-yl)-1H-pyrazol-4-yl)-5-(trifluoromethyl) pyrimidine-2,4-diamine]
2.2 nM | CNc1nc(Nc2cn(C3CCN(C4COC4)CC3F)nc2C)ncc1C(F)(F)F (stereo not shown) [Example 199, N2-(1-(3-fluoro-1-(oxetan-3-yl)piperidin-4-yl)-3-methyl-1H-pyrazol-4-yl)-N4-methyl-5-(trifluoromethyl) pyrimidine-2,4-diamine]
1.1 nM | CCNc1nc(Nc2cnn(-c3ccc(S(=O)(=O)C4CC4)cc3)c2C)ncc1C(F)(F)F [Example 174, N2-(1-(4-(cyclopropyl-sulfonyl)phenyl)-5-methyl-1H-pyrazol-4-yl)-N4-ethyl-5-(trifluoromethyl) pyrimidine-2,4-diamine]
45 nM | CNC(=O)C(C)(C)n1ncc(Nc2ncc(C(F)(F)F)c(NC)n2)c1Cl [Example 237, 2-(5-chloro-4-(4-(methylamino)-5-(trifluoromethyl)pyrimidin-2-ylamino)-1H-pyrazol-1-yl)-N,2-dimethylpropan-amide]
1.1 nM | CNc1nc(Nc2cnn(C(C)C)c2Cl)ncc1C(F)(F)F [Example 138, N2-(5-chloro-1-isopropyl-1H-pyrazol-4-yl)-N4-methyl-5-(trifluoromethyl) pyrimidine-2,4-diamine]
3.4 nM | CNc1nc(Nc2cn(C)nc2C2CCC2)ncc1C(F)(F)F [Example 228, N2-(3-cyclobutyl-1-methyl-1H-pyrazol-4-yl)-N4-methyl-5-(trifluoromethyl) pyrimidine-2,4-diamine]
0.6 nM | CNc1nc(Nc2cnn(Cc3ccn(C)n3)c2C)ncc1C(F)(F)F [Example 324, N4-Methyl-N2-[5-methyl-1-(1-methyl-1H-pyrazol-3-ylmethyl)-1H-pyrazol-4-yl]-5-trifluoromethyl-pyrimidine-2,4-diamine]
